One assay has as its system S. epidermidis. The experiment in a line: MIC testing by broth dilution, S. epidermidis plank. The format is cell-based, Staphylococcus epidermidis. An outline of the steps: (§1)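 Media: LB (E. coli), Trypticase Soy (S. epidermidis), BHI (C. jejuni); plank cells. C. difficile on Wilkins Chalgrin agar, anaerobic Kirby-Bauer disks, zone vs NTZ zone ratio.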
A general note: Broth dilution looks for growth in wells or tubes with falling amounts of substance.

A further assay has as its system E. coli biofilm. Kind of assay: E. coli biofilm assay (activity tables). It counts as cell-based, Escherichia coli. Particulars: biofilm. An outline of the steps: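 E. coli strain 042 inoculated 1:100 with NTZ-containing medium and grown statically at 37 °C for 24 h. Growth measured by turbidity or plate counts (cfu/ml); biofilm stained with 0.5% crystal violet and read at 570 nm; triplicate, mean ± SD.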

The subject of a further assay is H. pylori. Kind of assay: MIC testing by broth dilution, H. pylori. The format is cell-based, Helicobacter pylori. The gist of the method: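 Helicobacter pylori was tested using a standard broth dilution method in 96 well microplates, each well holding a standard dilution of the organism in 100 microliters of Brain Heart Infusion. Compounds started at 32 μg/ml in 200 microliters in the first well and were serially diluted from 32 to 0.06. Wells were read visually at 24 h, and the MIC was the well with no growth.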

The test system of the next assay is MRSA. Kind of assay: MIC testing by broth dilution, MRSA. It counts as cell-based, Staphylococcus aureus. An outline of the steps:
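Values are broth-dilution MICs, defined as the well showing no growth on visual reading after 24 h; the tested range was 32 to 0.06 μg/ml, in organism-specific media (LB, Trypticase Soy, Brain Heart Infusion). The C. difficile entries come instead from anaerobic Kirby-Bauer disk zones, normalised to NTZ.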

The next assay deals with S. epidermidis biofilm. Kind of assay: S. epidermidis biofilm assay (activity tables). The format is cell-based, Staphylococcus epidermidis. Particulars: for MIC S. epidermidis Biofilm: Furan analogues table. An outline of the steps:
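Overnight TSB cultures diluted to OD600 0.01 and grown static with compound (triplicate) at 37° C for 16 h; turbidity recorded for growth. Biofilm: washed wells ethanol-fixed, stained with 0.5% crystal violet, A570 read before and after 95% ethanol extraction; mean ± SD.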

The next assay has as its system C. jejuni. Kind of assay: MIC testing by broth dilution, C. jejuni. The format is cell-based, Campylobacter jejuni. An outline of the steps:
as §1

Assay [1] deals with PFOR (pyruvate ferredoxin oxidoreductase). Kind of assay: Direct PFOR enzyme assay. The format is biochemical. The protocol:
Representative compounds of the invention were tested in a series of assays against a series of organisms as described above. […] The organisms tested include, C. difficile, H. pylori, C. jejuni, MRSA, S. epidermidis, and E. coli. S. epidermidis and E. coli were tested in the plank and biofilm assay. A disk diffusion assay was also used for C. difficile. Direct PFOR enzyme assays were also performed. All analogues and derivatives were not tested on every organism in every type of assay (the “-” in each table means that it was not tested).

The subject of the next assay is E. coli. The experiment in a line: MIC testing by broth dilution, E. coli plank. It counts as cell-based, Escherichia coli. The gist of the method: as §1
In another assay the test system is C. difficile. The experiment in a line: Disk diffusion (Kirby Bower), C. difficile. It counts as cell-based, Clostridium difficile. The note with it: for Disk Diff (%) C. difficile: Nitazoxanide = 100. The gist of the method:
as §1
(In general: Agar diffusion results depend on both activity and mobility in agar.)

[2] abbreviates: broth dilution, Trypticase Soy, 24 h, read-out: MIC (μM) S. epidermidis Plank.
Setting [3] is: read-out: MIC (μM) E. coli Biofilm.
The mark [4] stands for this setting: broth dilution, Brain Heart Infusion, 24 h, read-out: MIC (μM) H. pylori.
Setting [5] is: broth dilution, Trypticase Soy, 24 h, read-out: MIC (μM) MRSA.
The mark [6] stands for this setting: broth dilution, Brain Heart Infusion, 24 h, read-out: MIC (μM) C. jejuni.
[7] abbreviates: broth dilution, LB medium, 24 h, read-out: MIC (μM) E. coli Plank.
The mark [8] stands for this setting: planktonic, Furan analogues table, read-out: MIC S. epidermidis Plank.
Setting [9] is: Furan analogues table, read-out: MIC E. coli Biofilm.
Setting [10] is: Furan analogues table, read-out: MIC H. pylori.
[11] abbreviates: Furan analogues table, read-out: MIC MRSA.
Where [12] appears, read: Furan analogues table, read-out: MIC C. jejuni.
Where [13] appears, read: planktonic, Furan analogues table, read-out: MIC E. coli Plank.

Structures are written as SMILES. ≈ marks a conversion by molar mass, not a printed value. Like-named read-outs stand apart in the source and are kept apart here. Marks after values point to notes of the source that are not given here.

For `N#Cc1ccc(C(=O)Nc2ncc([N+](=O)[O-])s2)cc1` [VPC161086], the MIC in the assay on S. epidermidis (setting [2]) turned out to be 21.9 µM (≈ 6.01 µg/mL); in the assay with E. coli biofilm (setting [3]) it was 58.3 µM (≈ 16 µg/mL); in the assay with H. pylori (setting [4]), 9.1 µM (≈ 2.5 µg/mL); in the assay on MRSA (setting [5]), 14.6 µM (≈ 4 µg/mL); in the assay on C. jejuni (setting [6]), 43.8 µM (≈ 12 µg/mL); in the assay with E. coli (setting [7]) it was 87.5 µM (≈ 24 µg/mL). For the same compound, in the assay on S. epidermidis biofilm, the “MIC (μM) S. epidermidis Biofilm” value is 4.6 µM (≈ 1.26 µg/mL). In addition, in assay [1], the “PFOR inhibition relative to nitazoxanide (=100)” value was 74%.

Regarding `O=C(Nc1ncc([N+](=O)[O-])s1)c1cc2ccccc2o1` [VPC161144], the MIC came out at 110.6 µM (≈ 32 µg/mL) with S. epidermidis (setting [8]); 110.6 µM (≈ 32 µg/mL) in the assay on E. coli biofilm (setting [9]); 0.6 µM (≈ 0.174 µg/mL) in the assay on H. pylori (setting [10]); 57.0 µM (≈ 16.5 µg/mL) in the assay on MRSA (setting [11]); 110.6 µM (≈ 32 µg/mL) in the assay with C. jejuni (setting [12]); 110.6 µM (≈ 32 µg/mL) in the assay with E. coli (setting [13]). The “MIC S. epidermidis Biofilm” value in the assay with S. epidermidis biofilm was 110.6 µM (≈ 32 µg/mL). For the same compound, the “PFOR inhibition relative to nitazoxanide (=100)” value in assay [1] (Furan analogues table) is on record as 70%.

For the compound `O=C(Nc1sc([N+](=O)[O-])cc1[N+](=O)[O-])c1cccc(C(F)(F)F)c1` [VPC16b1092], the MIC in the assay with S. epidermidis (planktonic, 2-amino-3,5-dinitrothiophene analogues table, read-out: MIC S. epidermidis Plank) is on record as 0.2 µM (≈ 0.0723 µg/mL); in the assay on H. pylori (2-amino-3,5-dinitrothiophene analogues table, read-out: MIC H. pylori) it was 0.5 µM (≈ 0.181 µg/mL); in the assay with MRSA (2-amino-3,5-dinitrothiophene analogues table, read-out: MIC MRSA), 1.4 µM (≈ 0.506 µg/mL); with C. jejuni (2-amino-3,5-dinitrothiophene analogues table, read-out: MIC C. jejuni), 2.1 µM (≈ 0.759 µg/mL); in the assay with E. coli (planktonic, 2-amino-3,5-dinitrothiophene analogues table, read-out: MIC E. coli Plank), 88.6 µM (≈ 32 µg/mL). Moreover, in the assay with C. difficile (2-amino-3,5-dinitrothiophene analogues table), the “Disk Diff (%) C. difficile” value turned out to be 59%. Also, the “PFOR inhibition relative to nitazoxanide (=100)” value in assay [1] (* biphasic initial inhibition followed by uninhibited rate, ** caused some precipitant in extract) is given as 87** %.

Regarding `O=C(Nc1ncc([N+](=O)[O-])s1)c1ccco1` [VPC161124], the MIC with S. epidermidis (setting [8]) turned out to be 66.9 µM (≈ 16 µg/mL); in the assay with E. coli biofilm (setting [9]) it was 33.4 µM (≈ 7.99 µg/mL); in the assay with H. pylori (setting [10]), 1.0 µM (≈ 0.239 µg/mL); with MRSA (setting [11]), 50.2 µM (≈ 12 µg/mL); with C. jejuni (setting [12]) it was 8.4 µM (≈ 2.01 µg/mL); in the assay on E. coli (setting [13]) it was 133.8 µM (≈ 32 µg/mL). Besides, in the assay on C. difficile (Furan analogues table), the “Disk Diff (%) C. difficile” value came to 100%. In the assay with S. epidermidis biofilm, the “MIC S. epidermidis Biofilm” value turned out to be 66.9 µM (≈ 16 µg/mL). Also, the “PFOR inhibition relative to nitazoxanide (=100)” value in assay [1] (Furan analogues table) is reported as 82%.

Consider `O=C(Nc1nc(Cl)c([N+](=O)[O-])s1)c1cccc(C(F)(F)F)c1` [VPC162088], for which the MIC with S. epidermidis (setting [2]) is listed as 8.5 µM (≈ 2.99 µg/mL); in the assay on H. pylori (setting [4]), 5.7 µM (≈ 2 µg/mL); in the assay on MRSA (setting [5]) it was 11.4 µM (≈ 4.01 µg/mL); in the assay on C. jejuni (setting [6]), 34.1 µM (≈ 12 µg/mL); in the assay on E. coli (setting [7]), 91.0 µM (≈ 32 µg/mL). Moreover, in the assay on C. difficile (zone of inhibited growth as relative ratio to the zone for NTZ), the “Disk Diffusion (%) C. difficile” value amounted to 76%. In addition, the “PFOR inhibition relative to nitazoxanide (=100)” value in [1] is given as 49** %.

Take `O=C(Nc1ncc([N+](=O)[O-])s1)c1ccsc1` [VPC16a1008]: the MIC is given as 15.7 µM (≈ 4.01 µg/mL) in the assay with S. epidermidis (planktonic, Thiophene analogues table, read-out: MIC S. epidermidis Plank); 0.7 µM (≈ 0.179 µg/mL) in the assay on H. pylori (Thiophene analogues table, read-out: MIC H. pylori); 23.5 µM (≈ 6 µg/mL) with MRSA (Thiophene analogues table, read-out: MIC MRSA); 5.9 µM (≈ 1.51 µg/mL) in the assay on C. jejuni (Thiophene analogues table, read-out: MIC C. jejuni); 125.4 µM (≈ 32 µg/mL) in the assay on E. coli (planktonic, Thiophene analogues table, read-out: MIC E. coli Plank). For the same compound, the “Disk Diff (%) C. difficile” value in the assay with C. difficile (Thiophene analogues table) is 100%. Also, the “PFOR inhibition relative to nitazoxanide (=100)” value in [1] (Thiophene analogues table) worked out at 96%.

Take `O=C(C=Cc1ccccc1)Nc1ncc([N+](=O)[O-])s1` [VPC161200]: the MIC in the assay with S. epidermidis (setting [2]) turned out to be 29.1 µM (≈ 8.01 µg/mL); with E. coli biofilm (setting [3]) it was 116.2 µM (≈ 32 µg/mL); in the assay on H. pylori (setting [4]) it was 0.3 µM (≈ 0.0826 µg/mL); with MRSA (setting [5]) it was 116.2 µM (≈ 32 µg/mL); in the assay on C. jejuni (setting [6]) it was 2.7 µM (≈ 0.743 µg/mL); with E. coli (setting [7]) it was 116.2 µM (≈ 32 µg/mL). Also, the “MIC (μM) S. epidermidis Biofilm” value against S. epidermidis biofilm amounted to 14.5 µM (≈ 3.99 µg/mL). For the same compound, in assay [1], the “PFOR inhibition relative to nitazoxanide (=100)” value stood at 93%.

For the origin of these results see US8835644B2, “Broad spectrum benzothiophene-nitrothiazolide and other antimicrobials” (University of Virginia Patent Foundation, priority 2009, dated 2014).
